Source: publication PMC12670405, “Second-Generation AURKA-Targeting PROTACs: Structural Optimization toward in Vivo Degradation in Neuroblastoma” (Journal of Medicinal Chemistry, 2025)

What was measured:
Assay in all cases: KINOMEscan scanMAX
Assay type in all cases: binding
Settings in all cases: read-out: Percent Control
RIOK2 = molecular target: T1, RIOK2 (Homo sapiens, UniProt Q9BVS4)
T1 construct: purchased Eurofins Discovery (DiscoverX KINOMEscan scanMAX)
Description: (§1) The kinome-wide binding assay was performed by Eurofins Discovery using the scanMAX screening platform. More information can be found on the Eurofins Discovery Web site.

[1] = molecular target: T2, RSK3(Kin.Dom.1-N-terminal) (Homo sapiens, UniProt Q15349)
T2 construct: RSK3(Kin.Dom.1-N-terminal); purchased Eurofins Discovery (DiscoverX KINOMEscan scanMAX)
Description: as §1

[2] = molecular target: T3, ABL1(Q252H)-phosphorylated (Homo sapiens, UniProt P00519, Q252H)
T3 construct: purchased Eurofins Discovery (DiscoverX KINOMEscan scanMAX)
Description: as §1

p38-delta = molecular target: T4, p38-delta (Homo sapiens, UniProt O15264)
T4 construct: purchased Eurofins Discovery (DiscoverX KINOMEscan scanMAX)
T4 sequence (O15264 whole entry): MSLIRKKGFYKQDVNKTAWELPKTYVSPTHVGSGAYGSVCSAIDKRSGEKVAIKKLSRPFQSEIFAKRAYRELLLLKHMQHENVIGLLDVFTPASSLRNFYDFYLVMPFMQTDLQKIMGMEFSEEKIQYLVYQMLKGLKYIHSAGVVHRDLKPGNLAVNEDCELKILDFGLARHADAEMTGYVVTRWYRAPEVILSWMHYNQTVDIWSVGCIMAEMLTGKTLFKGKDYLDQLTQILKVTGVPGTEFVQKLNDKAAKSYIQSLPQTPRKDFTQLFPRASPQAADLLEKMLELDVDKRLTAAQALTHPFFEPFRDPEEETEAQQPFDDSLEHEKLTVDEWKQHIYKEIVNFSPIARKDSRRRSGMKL
Description: as §1

KIT = molecular target: T5, KIT (Homo sapiens, UniProt P10721)
T5 construct: purchased Eurofins Discovery (DiscoverX KINOMEscan scanMAX)
Description: as §1

MRCKB = molecular target: T6, MRCKB (Homo sapiens, UniProt Q9Y5S2)
T6 construct: purchased Eurofins Discovery (DiscoverX KINOMEscan scanMAX)
Description: as §1

PCTK1 = molecular target: T7, PCTK1 (Homo sapiens, UniProt Q00536)
T7 construct: purchased Eurofins Discovery (DiscoverX KINOMEscan scanMAX)
Description: as §1

ADCK4 = molecular target: T8, ADCK4 (Homo sapiens, UniProt Q96D53)
T8 construct: purchased Eurofins Discovery (DiscoverX KINOMEscan scanMAX)
Description: as §1

GRK4 = molecular target: T9, GRK4 (Homo sapiens, UniProt P32298)
T9 construct: purchased Eurofins Discovery (DiscoverX KINOMEscan scanMAX)
Description: as §1

RET(V804L) = molecular target: T10, RET(V804L) (Homo sapiens, UniProt P07949, V804L)
T10 construct: purchased Eurofins Discovery (DiscoverX KINOMEscan scanMAX)
Description: as §1

FGFR1 = molecular target: T11, FGFR1 (Homo sapiens, UniProt P11362)
T11 construct: purchased Eurofins Discovery (DiscoverX KINOMEscan scanMAX)
T11 sequence (P11362 22-822): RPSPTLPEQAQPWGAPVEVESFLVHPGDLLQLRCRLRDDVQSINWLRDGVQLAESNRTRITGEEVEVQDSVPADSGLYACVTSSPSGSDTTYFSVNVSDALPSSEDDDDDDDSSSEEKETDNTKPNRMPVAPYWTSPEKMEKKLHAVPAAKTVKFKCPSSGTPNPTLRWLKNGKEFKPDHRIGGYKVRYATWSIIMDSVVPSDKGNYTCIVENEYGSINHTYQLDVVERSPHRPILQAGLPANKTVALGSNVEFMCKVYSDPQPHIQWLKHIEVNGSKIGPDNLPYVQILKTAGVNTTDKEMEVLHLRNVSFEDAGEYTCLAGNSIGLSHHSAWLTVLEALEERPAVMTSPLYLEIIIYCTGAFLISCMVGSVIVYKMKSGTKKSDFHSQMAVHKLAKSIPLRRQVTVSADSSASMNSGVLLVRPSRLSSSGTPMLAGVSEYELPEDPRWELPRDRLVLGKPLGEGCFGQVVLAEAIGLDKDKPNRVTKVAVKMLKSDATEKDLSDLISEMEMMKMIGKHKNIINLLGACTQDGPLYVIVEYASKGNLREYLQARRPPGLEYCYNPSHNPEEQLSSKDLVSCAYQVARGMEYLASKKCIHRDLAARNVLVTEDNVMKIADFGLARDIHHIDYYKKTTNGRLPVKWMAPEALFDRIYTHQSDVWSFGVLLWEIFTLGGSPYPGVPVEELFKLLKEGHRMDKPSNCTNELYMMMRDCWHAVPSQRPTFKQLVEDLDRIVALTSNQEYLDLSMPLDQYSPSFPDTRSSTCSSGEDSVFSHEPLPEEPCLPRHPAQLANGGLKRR
Description: as §1

PLK1 = molecular target: T12, PLK1 (Homo sapiens, UniProt P53350)
T12 construct: purchased Eurofins Discovery (DiscoverX KINOMEscan scanMAX)
Description: as §1

EPHA2 = molecular target: T13, EPHA2 (Homo sapiens, UniProt P29317)
T13 construct: purchased Eurofins Discovery (DiscoverX KINOMEscan scanMAX)
T13 sequence (P29317 24-976): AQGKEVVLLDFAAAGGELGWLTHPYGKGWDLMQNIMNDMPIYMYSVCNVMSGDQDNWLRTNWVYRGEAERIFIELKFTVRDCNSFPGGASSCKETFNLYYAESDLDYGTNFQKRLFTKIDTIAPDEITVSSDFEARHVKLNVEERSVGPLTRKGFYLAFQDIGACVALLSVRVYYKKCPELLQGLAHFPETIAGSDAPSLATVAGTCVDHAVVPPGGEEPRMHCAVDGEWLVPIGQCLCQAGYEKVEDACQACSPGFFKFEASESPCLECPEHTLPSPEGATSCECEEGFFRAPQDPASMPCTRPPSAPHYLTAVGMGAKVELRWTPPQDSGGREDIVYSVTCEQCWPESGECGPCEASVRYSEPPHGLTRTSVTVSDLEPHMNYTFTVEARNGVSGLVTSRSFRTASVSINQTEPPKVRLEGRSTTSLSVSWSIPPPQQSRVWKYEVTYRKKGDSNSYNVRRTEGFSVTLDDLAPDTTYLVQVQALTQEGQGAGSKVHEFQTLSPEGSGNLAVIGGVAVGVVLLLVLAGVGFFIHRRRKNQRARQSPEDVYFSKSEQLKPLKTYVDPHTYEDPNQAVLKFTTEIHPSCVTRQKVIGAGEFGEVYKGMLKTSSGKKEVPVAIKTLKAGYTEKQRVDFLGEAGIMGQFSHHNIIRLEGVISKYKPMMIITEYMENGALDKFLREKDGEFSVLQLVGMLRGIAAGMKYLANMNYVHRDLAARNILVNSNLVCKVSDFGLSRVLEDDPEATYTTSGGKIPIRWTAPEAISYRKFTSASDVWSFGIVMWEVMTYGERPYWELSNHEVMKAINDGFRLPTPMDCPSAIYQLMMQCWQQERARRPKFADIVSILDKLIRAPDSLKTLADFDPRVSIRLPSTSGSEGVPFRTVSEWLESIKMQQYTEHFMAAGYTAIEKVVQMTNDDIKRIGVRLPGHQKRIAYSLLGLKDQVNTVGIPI
Description: as §1

MELK = molecular target: T14, MELK (Homo sapiens, UniProt Q14680)
T14 construct: purchased Eurofins Discovery (DiscoverX KINOMEscan scanMAX)
Description: as §1

QSK = molecular target: T15, QSK (Homo sapiens, UniProt Q9Y2K2)
T15 construct: purchased Eurofins Discovery (DiscoverX KINOMEscan scanMAX)
Description: as §1

GSK3A = molecular target: T16, GSK3A (Homo sapiens, UniProt P49840)
T16 construct: purchased Eurofins Discovery (DiscoverX KINOMEscan scanMAX)
T16 sequence (P49840 whole entry): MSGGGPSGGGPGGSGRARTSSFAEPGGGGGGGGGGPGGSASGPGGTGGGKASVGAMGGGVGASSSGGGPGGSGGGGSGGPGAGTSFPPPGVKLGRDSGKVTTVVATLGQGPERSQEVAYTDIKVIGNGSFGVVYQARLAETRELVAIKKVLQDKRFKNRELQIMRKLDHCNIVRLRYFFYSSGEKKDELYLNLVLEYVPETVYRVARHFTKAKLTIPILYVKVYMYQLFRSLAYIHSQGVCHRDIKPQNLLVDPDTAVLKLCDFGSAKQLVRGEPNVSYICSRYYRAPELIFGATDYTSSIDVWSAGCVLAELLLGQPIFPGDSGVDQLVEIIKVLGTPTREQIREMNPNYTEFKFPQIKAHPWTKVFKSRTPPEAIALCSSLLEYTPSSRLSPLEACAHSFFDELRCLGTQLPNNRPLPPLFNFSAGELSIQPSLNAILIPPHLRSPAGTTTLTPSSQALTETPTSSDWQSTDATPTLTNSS
Description: as §1

BIKE = molecular target: T17, BIKE (Homo sapiens, UniProt Q9NSY1)
T17 construct: purchased Eurofins Discovery (DiscoverX KINOMEscan scanMAX)
Description: as §1

PAK1 = molecular target: T18, PAK1 (Homo sapiens, UniProt Q13153)
T18 construct: purchased Eurofins Discovery (DiscoverX KINOMEscan scanMAX)
T18 sequence (Q13153 whole entry): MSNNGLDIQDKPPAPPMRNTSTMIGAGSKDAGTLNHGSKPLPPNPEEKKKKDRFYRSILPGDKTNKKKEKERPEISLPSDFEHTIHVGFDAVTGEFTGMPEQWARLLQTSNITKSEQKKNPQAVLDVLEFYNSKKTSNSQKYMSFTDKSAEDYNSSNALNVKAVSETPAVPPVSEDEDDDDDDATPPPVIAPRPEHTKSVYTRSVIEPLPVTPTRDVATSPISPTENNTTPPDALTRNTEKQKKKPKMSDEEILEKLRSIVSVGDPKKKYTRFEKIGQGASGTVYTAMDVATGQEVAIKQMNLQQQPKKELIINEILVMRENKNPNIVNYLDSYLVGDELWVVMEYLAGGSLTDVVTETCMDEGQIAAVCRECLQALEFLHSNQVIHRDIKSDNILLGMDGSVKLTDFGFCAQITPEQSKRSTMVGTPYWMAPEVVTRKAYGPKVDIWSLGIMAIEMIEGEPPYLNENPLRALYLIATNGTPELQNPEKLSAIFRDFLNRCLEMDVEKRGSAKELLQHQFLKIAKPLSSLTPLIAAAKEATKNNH
Description: as §1

[3] = molecular target: T19, ABL1(F317I)-nonphosphorylated (Homo sapiens, UniProt P00519, F317I)
T19 construct: purchased Eurofins Discovery (DiscoverX KINOMEscan scanMAX)
Description: as §1

IRAK3 = molecular target: T20, IRAK3 (Homo sapiens, UniProt Q9Y616)
T20 construct: purchased Eurofins Discovery (DiscoverX KINOMEscan scanMAX)
T20 sequence (Q9Y616 whole entry): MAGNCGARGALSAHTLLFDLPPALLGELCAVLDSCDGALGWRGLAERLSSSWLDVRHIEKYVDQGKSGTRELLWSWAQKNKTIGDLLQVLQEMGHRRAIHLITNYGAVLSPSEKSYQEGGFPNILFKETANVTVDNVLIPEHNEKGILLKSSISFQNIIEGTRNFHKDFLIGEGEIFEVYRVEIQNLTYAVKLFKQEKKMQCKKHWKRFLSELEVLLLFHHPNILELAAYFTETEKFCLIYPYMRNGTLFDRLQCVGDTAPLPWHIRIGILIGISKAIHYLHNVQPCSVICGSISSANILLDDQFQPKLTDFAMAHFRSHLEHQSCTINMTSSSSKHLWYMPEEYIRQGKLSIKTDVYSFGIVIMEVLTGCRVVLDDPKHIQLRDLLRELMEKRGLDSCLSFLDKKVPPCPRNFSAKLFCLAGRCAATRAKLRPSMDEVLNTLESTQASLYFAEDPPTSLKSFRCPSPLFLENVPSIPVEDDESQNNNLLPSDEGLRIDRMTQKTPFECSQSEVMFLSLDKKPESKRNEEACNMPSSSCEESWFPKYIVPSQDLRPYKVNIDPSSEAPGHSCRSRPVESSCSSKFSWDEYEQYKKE
Description: as §1

[4] = molecular target: T21, ABL1(Q252H)-nonphosphorylated (Homo sapiens, UniProt P00519, Q252H)
T21 construct: purchased Eurofins Discovery (DiscoverX KINOMEscan scanMAX)
Description: as §1

SIK = molecular target: T22, SIK (Homo sapiens, UniProt P57059)
T22 construct: purchased Eurofins Discovery (DiscoverX KINOMEscan scanMAX)
Description: as §1

SNRK = molecular target: T23, SNRK (Homo sapiens, UniProt Q9NRH2)
T23 construct: purchased Eurofins Discovery (DiscoverX KINOMEscan scanMAX)
T23 sequence (Q9NRH2 whole entry): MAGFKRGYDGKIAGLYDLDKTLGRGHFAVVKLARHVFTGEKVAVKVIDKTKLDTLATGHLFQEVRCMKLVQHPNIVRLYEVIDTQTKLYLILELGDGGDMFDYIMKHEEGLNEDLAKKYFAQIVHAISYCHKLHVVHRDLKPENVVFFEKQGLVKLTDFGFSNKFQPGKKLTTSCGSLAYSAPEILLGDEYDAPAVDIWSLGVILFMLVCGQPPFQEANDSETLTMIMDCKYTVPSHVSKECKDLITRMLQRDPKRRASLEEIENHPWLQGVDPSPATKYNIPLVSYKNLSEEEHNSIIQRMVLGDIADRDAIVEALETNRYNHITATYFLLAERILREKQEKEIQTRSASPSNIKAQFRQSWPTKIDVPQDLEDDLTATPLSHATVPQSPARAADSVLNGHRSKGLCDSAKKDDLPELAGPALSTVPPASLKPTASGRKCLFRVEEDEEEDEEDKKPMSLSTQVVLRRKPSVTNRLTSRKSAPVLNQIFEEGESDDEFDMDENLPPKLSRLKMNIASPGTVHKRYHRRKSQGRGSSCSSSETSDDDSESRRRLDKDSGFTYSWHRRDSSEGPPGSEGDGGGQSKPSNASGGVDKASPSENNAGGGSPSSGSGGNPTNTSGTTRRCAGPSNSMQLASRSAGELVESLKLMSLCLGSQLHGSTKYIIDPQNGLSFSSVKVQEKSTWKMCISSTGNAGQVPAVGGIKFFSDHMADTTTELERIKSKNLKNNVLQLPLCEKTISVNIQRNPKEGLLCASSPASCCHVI
Description: as §1

MLK1 = molecular target: T24, MLK1 (Homo sapiens, UniProt P80192)
T24 construct: purchased Eurofins Discovery (DiscoverX KINOMEscan scanMAX)
Description: as §1

LATS2 = molecular target: T25, LATS2 (Homo sapiens, UniProt Q9NRM7)
T25 construct: purchased Eurofins Discovery (DiscoverX KINOMEscan scanMAX)
Description: as §1

MEK1 = molecular target: T26, MEK1 (Homo sapiens, UniProt Q02750)
T26 construct: purchased Eurofins Discovery (DiscoverX KINOMEscan scanMAX)
Description: as §1

TAOK3 = molecular target: T27, TAOK3 (Homo sapiens, UniProt Q9H2K8)
T27 construct: purchased Eurofins Discovery (DiscoverX KINOMEscan scanMAX)
Description: as §1

YANK1 = molecular target: T28, YANK1 (Homo sapiens, UniProt Q8WU08)
T28 construct: purchased Eurofins Discovery (DiscoverX KINOMEscan scanMAX)
Description: as §1

CDKL5 = molecular target: T29, CDKL5 (Homo sapiens, UniProt O76039)
T29 construct: purchased Eurofins Discovery (DiscoverX KINOMEscan scanMAX)
Description: as §1

CSNK1A1 = molecular target: T30, CSNK1A1 (Homo sapiens, UniProt P48729)
T30 construct: purchased Eurofins Discovery (DiscoverX KINOMEscan scanMAX)
Description: as §1

[5] = molecular target: T31, RSK1(Kin.Dom.2-C-terminal) (Homo sapiens, UniProt Q15418)
T31 construct: RSK1(Kin.Dom.2-C-terminal); purchased Eurofins Discovery (DiscoverX KINOMEscan scanMAX)
Description: as §1

ABL2 = molecular target: T32, ABL2 (Homo sapiens, UniProt P42684)
T32 construct: purchased Eurofins Discovery (DiscoverX KINOMEscan scanMAX)
Description: as §1

CHEK1 = molecular target: T33, CHEK1 (Homo sapiens, UniProt O14757)
T33 construct: purchased Eurofins Discovery (DiscoverX KINOMEscan scanMAX)
T33 sequence (O14757 whole entry): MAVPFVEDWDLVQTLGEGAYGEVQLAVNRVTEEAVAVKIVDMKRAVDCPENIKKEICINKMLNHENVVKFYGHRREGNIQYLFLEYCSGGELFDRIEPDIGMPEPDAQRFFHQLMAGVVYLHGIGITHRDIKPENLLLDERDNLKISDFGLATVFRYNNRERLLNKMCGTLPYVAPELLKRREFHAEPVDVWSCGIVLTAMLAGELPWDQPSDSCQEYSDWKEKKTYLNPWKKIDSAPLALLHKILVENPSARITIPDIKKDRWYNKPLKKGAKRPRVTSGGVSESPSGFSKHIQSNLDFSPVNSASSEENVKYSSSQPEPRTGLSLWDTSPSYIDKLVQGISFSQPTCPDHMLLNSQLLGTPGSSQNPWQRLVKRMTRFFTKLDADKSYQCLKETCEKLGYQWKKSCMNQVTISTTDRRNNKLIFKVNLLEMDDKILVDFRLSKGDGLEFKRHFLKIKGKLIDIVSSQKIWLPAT
Description: as §1

Cc1cc(Nc2ccc(F)c(CC3(C(=O)N4CCC(F)(CN5CCN(c6ccc(N7CCC(=O)NC7=O)cn6)CC5)CC4)CCN(Cc4cccc(Cl)c4F)CC3)n2)n[nH]1 [SK5527]
remaining binding at 0.1 µM (RIOK2; 100 nM): 93% | remaining binding at 1 µM (RIOK2; 1000 nM): 64% | remaining binding at 0.1 µM ([1]; 100 nM): 100% | remaining binding at 1 µM ([1]; 1000 nM): 96% | remaining binding at 0.1 µM ([2]; 100 nM): 68% | remaining binding at 1 µM ([2]; 1000 nM): 44% | remaining binding at 0.1 µM (p38-delta; 100 nM): 100% | remaining binding at 1 µM (p38-delta; 1000 nM): 100% | remaining binding at 0.1 µM (KIT; 100 nM): 100% | remaining binding at 1 µM (KIT; 1000 nM): 61% | remaining binding at 0.1 µM (MRCKB; 100 nM): 98% | remaining binding at 1 µM (MRCKB; 1000 nM): 93% | remaining binding at 0.1 µM (PCTK1; 100 nM): 89% | remaining binding at 1 µM (PCTK1; 1000 nM): 88% | remaining binding at 0.1 µM (ADCK4; 100 nM): 92% | remaining binding at 1 µM (ADCK4; 1000 nM): 84% | remaining binding at 0.1 µM (GRK4; 100 nM): 96% | remaining binding at 1 µM (GRK4; 1000 nM): 100% | remaining binding at 0.1 µM (RET(V804L); 100 nM): 92% | remaining binding at 1 µM (RET(V804L); 1000 nM): 38% | remaining binding at 0.1 µM (FGFR1; 100 nM): 100% | remaining binding at 1 µM (FGFR1; 1000 nM): 92% | remaining binding at 0.1 µM (PLK1; 100 nM): 58% | remaining binding at 1 µM (PLK1; 1000 nM): 82% | remaining binding at 0.1 µM (EPHA2; 100 nM): 100% | remaining binding at 1 µM (EPHA2; 1000 nM): 100% | remaining binding at 0.1 µM (MELK; 100 nM): 99% | remaining binding at 1 µM (MELK; 1000 nM): 87% | remaining binding at 0.1 µM (QSK; 100 nM): 89% | remaining binding at 1 µM (QSK; 1000 nM): 90% | remaining binding at 0.1 µM (GSK3A; 100 nM): 100% | remaining binding at 1 µM (GSK3A; 1000 nM): 94% | remaining binding at 0.1 µM (BIKE; 100 nM): 80% | remaining binding at 1 µM (BIKE; 1000 nM): 73% | remaining binding at 0.1 µM (PAK1; 100 nM): 100% | remaining binding at 1 µM (PAK1; 1000 nM): 88% | remaining binding at 0.1 µM ([3]; 100 nM): 84% | remaining binding at 1 µM ([3]; 1000 nM): 74% | remaining binding at 0.1 µM (IRAK3; 100 nM): 100% | remaining binding at 1 µM (IRAK3; 1000 nM): 100% | remaining binding at 0.1 µM ([4]; 100 nM): 63% | remaining binding at 1 µM ([4]; 1000 nM): 15% | remaining binding at 0.1 µM (SIK; 100 nM): 93% | remaining binding at 1 µM (SIK; 1000 nM): 59% | remaining binding at 0.1 µM (SNRK; 100 nM): 71% | remaining binding at 1 µM (SNRK; 1000 nM): 53% | remaining binding at 0.1 µM (MLK1; 100 nM): 94% | remaining binding at 1 µM (MLK1; 1000 nM): 91% | remaining binding at 0.1 µM (LATS2; 100 nM): 69% | remaining binding at 1 µM (LATS2; 1000 nM): 43% | remaining binding at 0.1 µM (MEK1; 100 nM): 76% | remaining binding at 1 µM (MEK1; 1000 nM): 72% | remaining binding at 0.1 µM (TAOK3; 100 nM): 100% | remaining binding at 1 µM (TAOK3; 1000 nM): 100% | remaining binding at 0.1 µM (YANK1; 100 nM): 100% | remaining binding at 1 µM (YANK1; 1000 nM): 77% | remaining binding at 0.1 µM (CDKL5; 100 nM): 94% | remaining binding at 1 µM (CDKL5; 1000 nM): 81% | remaining binding at 0.1 µM (CSNK1A1; 100 nM): 100% | remaining binding at 1 µM (CSNK1A1; 1000 nM): 100% | remaining binding at 0.1 µM ([5]; 100 nM): 85% | remaining binding at 1 µM ([5]; 1000 nM): 92% | remaining binding at 0.1 µM (ABL2; 100 nM): 100% | remaining binding at 1 µM (ABL2; 1000 nM): 66% | remaining binding at 0.1 µM (CHEK1; 100 nM): 100% | remaining binding at 1 µM (CHEK1; 1000 nM): 100%
